# Laboratory results published in paper PMC9688344, “[^225Ac]Ac-SibuDAB for Targeted Alpha Therapy of Prostate Cancer: Preclinical Evaluation and Comparison with [^225Ac]Ac-PSMA-617” (Cancers, 2022).
# Legend:
# patients = test system: patients; set-up: method as in PMID 33293081; settings: clinical study; cited from earlier work
# human serum albumin = experiment: Albumin binding, ultrafiltration assay in human blood plasma; type: in vitro ADME
# Method: The logD values, cell uptake and internalization as well as PSMA-binding affinities (KD values) of [^225Ac]Ac-SibuDAB and [^225Ac]Ac-PSMA-617 (~50 kBq/nmol) were determined according to previously reported protocols (Supplementary Material: Sections S3–S5). Relative albumin-binding affinities were determined using an ultrafiltration assay according to an adapted version of a recently published protocol (Supplementary Material: Section S6).
# Table S1. PSMA-binding affinity expressed as KD values determined for SibuDAB and PSMA-617 labeled with actinium-225 or lutetium-177.
# Radioligand KD Value [nM] 95% Confidence interval n […]
# Purpose: The affinity of [225Ac]Ac-SibuDAB to serum albumin in mouse and human blood plasma was assessed and compared to that of [177Lu]Lu-SibuDAB to determine the impact of the radionuclide on the albumin-binding properties of SibuDAB.
# Methods: Relative albumin-binding affinities were determined using an ultrafiltra-tion assay according to a slightly adapted version of a published protocol. The concen-tration of mouse serum albumin (MSA) and human serum albumin (HSA) in samples of mouse and human plasma, respectively, was determined using a DRI-CHEM Analyzer (FUJIFILM, 4000i). […] The activity in the retained protein fraction (A bound), in the filtrate (Afiltrate) and in the filter unit (Afilter) were measured separately in a γ-counter (Perkin Elmer Wallac Wizard 1480). […]
# [1] = test system: PSMA-negative PC-3 flu tumors; experiment: Therapy study in PC-3 flu tumor-bearing mice; type: in vivo, BALB/c nude mice; settings: 30 kBq
# Method: Five days after subcutaneous inoculation of four groups of mice with either PC-3 PIP or PC-3 flu tumor cells on the right shoulder (4 × 10^6 cells in 100 μL HBSS), the mice were intravenously injected with either vehicle only (saline with 0.05% BSA, n = 6 and n = 4, respectively) or with 30 kBq [^225Ac]Ac-SibuDAB (1 nmol per mouse; n = 4 per group) diluted in vehicle (Table 1).
# After administration of the radioligands, the mice were monitored over 8 weeks using the same measures as previously published by Umbricht et al.. The relative body mass was defined as [BMx/BM0], where BMx is the body mass in grams at a given Day x and BM0 is the body mass in grams at Day 0. The tumor dimension was determined by measuring the longest tumor axis (L) and its perpendicular axis (W) with a digital caliper. The tumor volume (V) was calculated according to the equation [V = 0.5 × (LW^2)]. The relative tumor volume was defined as [TVx/TV0], where TVx is the tumor volume in mm^3 at a given Day x, and TV0 is the tumor volume in mm^3 at Day 0. Endpoint criteria that required euthanasia were defined as (i) body mass loss of >15%, (ii) a tumor volume of >800 mm^3, (iii) a combination of body mass loss of >10% and a tumor volume of >700 mm^3 or, (iv) signs of unease and pain or a combination thereof using a scoring system as previously reported. The median survival of mice of each group was assessed with Kaplan–Meier curves. Potential early side effects for mice that survived until study end were determined based on blood chemistry and organ-to-brain mass ratios on Day 56 by comparison to values obtained from an additional group of therapy-naïve mice (n = 4) without tumors but of the same age (Supplementary Material: Section S9).
SMILES,patients with hematotoxicity up to Grade 3/4 (patients),"relative albumin-binding affinity, higher than for [177Lu]Lu-SibuDAB (human serum albumin) [fold]",Day of first endpoint [1],Day of last endpoint [1],Median Survival [1] [days],Number of Mice Alive on Day 56 [1],Tumor growth delay [1]
O=C([O-])CN1CCN(CC(=O)[O-])CCN(CC(=O)NCC2CCC(C(=O)NC(Cc3ccc4ccccc4c3)C(=O)NCCCCC(NC(=O)NC(CCC(=O)O)C(=O)O)C(=O)O)CC2)CCN(CC(=O)[O-])CC1.[225Ac+3] (stereo not shown) [[^225Ac]Ac-PSMA-617],about 30%,,,,,,
CC(C)Cc1ccc(C(C)C(=O)NC(CCN)C(=O)NCCCCC(NC(=O)CN2CCN(CC(=O)[O-])CCN(CC(=O)[O-])CCN(CC(=O)[O-])CC2)C(=O)NCC2CCC(C(=O)NC(Cc3ccc4ccccc4c3)C(=O)NCCCCC(NC(=O)NC(CCC(=O)O)C(=O)O)C(=O)O)CC2)cc1.[225Ac+3] (stereo not shown) [[^225Ac]Ac-SibuDAB],,1.4,18,27,25,0/4,not significantly delay the growth
